For 89 compounds, melting point results are on record in a melting point compilation (Tetko et al.; mined from patent text by program, amines drawn as free bases though some values may be those of a salt).

SMILES strings stand for the structures. Where only a bound is given, the exact number is not on record here.

The term melting point denotes the temperature of the solid-liquid transition. The compound `C=C(C)CN1CCCC(C(=O)O)=Cc2cc(-c3ccc(OCCOCCCC)cc3)ccc21` showed a melting point of 132 to 134 °C.
The figure for `COC(=O)c1cn(C(c2ccccc2)(c2ccccc2)c2ccccc2)cn1` is 147 to 152 °C; for `O=C(O)c1c(Br)nc(-c2ccccc2)n1Cc1cc2c(cc1Cl)OCO2` it is 215 °C; for `C#CCOc1cc([N+](=O)[O-])c(F)cc1Cl` it is 88 to 89 °C.
`CC(C)OCC(=O)CC1c2ccccc2C(=O)N1c1ccc2ccc(Cl)nc2n1` (centres undefined) displayed a melting point of 200 °C.
The figure for `COCOc1ccc(C(=O)CI)c(OCc2ccccc2)c1` is 66 to 68 °C; for `O=C(O)CCC(NC(=O)C=Cc1ccco1)C(=O)O` (centres undefined) it is 166 to 170 °C.
In the case of `COc1ccc2cc(OCc3ccccc3)c(C(=O)O)cc2c1`, the melting point was in the range of 177 to 179 °C.
Take `Clc1ccc(-n2cc(Br)cn2)cc1`: the melting point is 75 to 76 °C.
Turning to `COn1c(=O)c2ccccc2n(-c2c(Cl)ccc(C)c2Cl)c1=O`, the melting point was in the range of 211 to 213 °C.
`C=Cc1ccc(OC(=O)C(Cl)(Cl)Cl)cc1` returned a melting point of 37 to 39 °C.
The figure for `CCOC(=O)C(=CNC1CC1)C(=O)c1cc(F)c(F)c(C)c1F` is 73 to 75 °C; for `NC(=O)c1ccc(OC(F)(F)C(F)(F)Br)cc1` it is 150 to 152 °C.
The figure for `COc1ccc(-c2c(Cl)c(CN3C(=O)CCC3=O)nc3sc4c(c23)CCN(Cc2ccccc2)C4)cc1OC` is 128 to 130 °C; for `Clc1ccc(C2(Cn3ccnc3)OCC(COc3ccc(N4CCN(c5ccc(-n6cnnn6)cc5)CC4)cc3)O2)c(Cl)c1` (centres undefined) it is 201 °C.
Then `CC(=O)NC[C@H]1CN(c2ccc(C3=CCN(c4nnc(C)s4)CC3)c(F)c2)C(=O)O1`, with 193 to 195 °C.
As for `CC(C)c1cc(CCC(=O)O)cc(C(C)C)c1O`, the melting point worked out at 106 °C.
Then `NS(=O)(=O)c1ccc(-n2nc(C(F)(F)F)cc2-c2ccc(-c3cscn3)c(C(F)(F)F)c2)cc1F`, with 140 to 142 °C; and `CCCCn1c(N)cc(=O)n(CCCC)c1=O`, with 90.1 to 92.4 °C.
For the compound `Clc1cc2nc(NC3=NCCN3)[nH]c2cc1Cl`, the melting point is 265 to 272 °C.
`CCCCc1nc2cccc(C(=O)NC(C)C)c2n1Cc1ccc(-c2ccccc2-c2nnn[nH]2)cc1` showed a melting point of 247 to 249 °C.
Turning to `O=C(Nc1cccnc1Cl)c1ccccc1[N+](=O)[O-]`, the melting point is 160 °C.
Then `Cc1nc2c(c3c1[nH]c1cccc(F)c13)C(=O)CC(C(C)C)C2` (centres undefined), with 213 to 215 °C; and `OCc1cc(Cl)c(F)c(Cl)c1F`, with 55 °C.
The figure for `CCCCCCCCCCCCCCCC(=O)OC(CCCCCCCCCCCCCC)C(=O)N[C@H](C(=O)N[C@@H](CCC(=O)O)C(=O)O)C(C)C` (some centres undefined) is 101 to 103 °C.
Then `Cc1[nH]cc2c(=O)n(-c3ccc(Cl)cc3)nc-2c1-c1cccc(C(=O)N2CCCC2)c1`, with 253 to 255 °C.
Regarding `Cc1ccc(CNC(=O)c2ccc3n2Cc2ccccc2N(C(=O)c2ccc(-c4ccccc4C)c(C)c2)C3)c(C)c1`, the melting point fell in the range of 159 to 161 °C.
For `COc1ccc(/C(=C\C=C\C(=O)NCCCCc2cccnc2)c2ccccc2OC)cc1`, the melting point fell in the range of 164 to 165 °C.
Turning to `CC(C)=CCCC(C)=CCCC(C)=CCCC1(C)CCc2c(C)c(O)c(C)c(C)c2O1` (centres undefined), the melting point was 25 to 28 °C.
`COc1cc(CN/C=C2\C(=O)NC(=O)c3ccc(-c4ccc(Oc5ccccc5)cc4)cc32)cc(O)c1OC`: the melting point is 240 to 241 °C.
In the case of `CC(C)(O)Cc1ccc(NC(=O)OCc2ccccc2)cc1`, the melting point fell in the range of 117 to 118 °C.
As to `CC1(C)CC(=O)C2C(=NC3=C(C(=O)CC(C)(C)C3)C2c2ccc(C#N)c([N+](=O)[O-])c2)C1` (centres undefined), the melting point is 274 to 275 °C.
For `Cc1cc(SC2=C(O)C[C@@](CCc3ccc(O)cc3)(C(C)C)OC2=O)c(C(C)C)c2sc(N)nc12`, the melting point was in the range of 232 to 234 °C.
Then `COC(=O)c1cccc2[nH]c(=O)c(-c3csc(-c4ccncc4)n3)cc12`, with over 250 °C.
The figure for `Cc1ccc(S(=O)(=O)N2CCCC2c2ccc(F)c(F)c2)cc1` (racemic) is 127 °C; for `CCOC(=O)C(=O)c1csc(NC(=O)Nc2ccccc2)n1` it is 217 to 220 °C; for `CCCCNC(=O)NC(N)=O` it is 129 to 131 °C.
`c1ccc(-c2ccc(CCOc3ncnc4ccccc34)cc2)cc1` returned a melting point of 72 to 74 °C.
The figure for `NC(=O)CCn1c(=S)sc2ccc(Cl)cc21` is 215 to 217 °C; for `CN(C)S(=O)(=O)c1cc(N)c(N)c([N+](=O)[O-])c1` it is 211 to 213 °C; for `COc1ccc([C@]2(C)CNC(=O)O2)cc1OC1CCC1` it is 132 °C.
The compound `COc1cc(CC(=O)Nc2ccc(C3CN(C(=O)CCC(=O)O)CC3C(=O)O)cc2)ccc1NC(=O)Nc1ccccc1C` (centres undefined) came in with a melting point of 184 °C.
Then `CCOC(=O)COc1ccc(CN2C(=O)C3(COc4cc5c(cc43)CCO5)c3ccccc32)cc1` (centres undefined), with 158 to 159 °C; and `CCN1CCc2ccc(Nc3ncc(C#N)c(Nc4ccccc4C(=O)NC)n3)cc2CC1`, with 164 to 170 °C; and `CC12CC3OC3CC1CCC1C2CCC2(C)C(O)C(N3CCCCC3)CC12` (centres undefined), with 153 to 165 °C.
The figure for `CN1CC(CCN2CCN(c3ncccn3)CC2)c2nc3ccccc3n2C1=O` (centres undefined) is 161 to 162 °C.
Consider `CCOC(=O)CC(CCCCNC(=O)c1sc(NC(=N)N)nc1C)c1ccccc1` (racemic), for which the melting point stood at 138 °C.
Turning to `COc1ccc(-c2c[nH]c(-c3cccnc3)n2)cc1`, the melting point was 184 to 186 °C.
For the compound `Cc1c(C(=O)Nc2ccc(N3CCN(CCO)CC3)c(C#N)c2)cnn1-c1ccc(Cl)c(Cl)c1`, the melting point is 195 to 197 °C.
Then `ClCc1cnoc1-c1cc(Cl)c(Cl)s1`, with 60 to 61 °C; and `CCCn1c(=O)c2c(nc(/C=C/c3ccc4c(c3)OCCO4)n2C)n(CCC)c1=O`, with 182 °C; and `COc1c(N2CC(C)(N)C3(CC3)C2)c(F)cc2c(=O)c(C(=O)O)cn([C@@H]3C[C@@H]3F)c12` (some centres undefined), with 195 to 200 °C.
Compound `Cc1oc(COc2ccccc2/C=C/CO)nc1-c1ccccc1` showed a melting point of 128 to 129 °C.
Then `Cc1ccc(S(=O)(=O)N(C(N)=O)c2cccc(Br)n2)cc1`, with over 310 °C.
The figure for `CC(=O)Nc1cc(O)c(C(=O)O)cc1NC(=N)N` is 334 to 357 °C.
The figure for `Cc1csc2[nH]cc(C(=O)c3ccc(Cl)cc3)c12` is 223 °C; for `CN1CCC(c2ccccc2)(c2ccccc2)CC1` it is 71 to 73 °C.
Turning to `CC1(C)CC1C(=O)NC(=CCCCSc1ncccc1O)C(=O)O` (centres undefined), the melting point is over 70 °C.
The figure for `O=C1CC2CCC(=O)N2c2cc(O)cc(O)c21` (centres undefined) is 254 to 256 °C.
The figure for `CCc1ccc(-c2ccc(-c3ccc(CC)s3)c(F)c2)cc1` is 67 °C; for `Cc1cnc(NC(=O)Nc2ccc(N3CCN(C(=O)Nc4ccc(OCCO)cc4C(F)(F)F)CC3)cc2)s1` it is 118 to 120 °C.
With `COc1ccc(C(=O)Nc2ccccc2)cc1NCc1ccc(C)c(C)c1`, the melting point lay within 163 to 164 °C.
The figure for `O[C@@H](COc1cccc(-c2noc3ccsc23)c1)CN1CCN(c2ccccc2F)CC1` is 96 to 99 °C; for `CCN(C(=O)c1ccc2nonc2c1)C1CCOCC1` it is 102 to 104 °C; for `CCOc1cc(C2CC=CN(C(=O)c3ccc(NC(=O)OCCCN(C)C)cc3)N2)ccc1OC` (centres undefined) it is 193 °C.
`O=c1[nH]c(-c2ccc(O)cc2)cc2ccccc12`: the melting point was 239 to 241 °C.
Then `CCCS(=O)(=O)c1sc(C(N)=O)c2c1-c1c(cnn1CC)CC2`, with 143 to 144 °C.
`CC(=O)Oc1ccc2c(c1)CCC1C3CCC(=O)C3(C)CC(=O)C21O` (centres undefined): the melting point was 247 to 248 °C.
Regarding `CCc1cc2ccccc2c(CNC(=O)c2cc(OC)c(OC)c(OC)c2)n1`, the melting point fell in the range of 175 to 176 °C.
Then `COc1cc2c(cc1OC)C(CNC=O)c1ccccc1CC2` (centres undefined), with 118 to 119 °C; and `CCCCCCN(C)c1ccc(C=C2SC(=S)N(Cc3nnn[nH]3)C2=O)cc1`, with 198 to 200 °C.
Then `CC1(C)OC(=O)Nc2ccc(-c3cc(Cl)cc(Cl)c3)cc21`, with 245 to 246 °C.
Consider `CC1Oc2ccc(OCCCC(C)(C)C(=O)O)cc2C=C1c1nccn1C` (centres undefined), for which the melting point is 145 to 146 °C.
Turning to `COn1ccn(C)c1=S`, the melting point lay within 56.9 to 57.5 °C.
The figure for `CN(CCN(C)[C@H]1CC[C@H](c2ccc3[nH]c(=O)oc3c2)CC1)c1ccccc1` is 240 to 243 °C; for `COc1cc(CCCCCC2OCCO2)ccc1OCc1nc(-c2ccccc2)oc1C` it is 81 to 82 °C.
`CC(=O)OC1CSC(Oc2ccc(C)nc2[N+](=O)[O-])C(OC(C)=O)C1OC(C)=O` (centres undefined) yielded a melting point of 154 °C.
With `CCSCCC(=O)NNC(=O)N1Cc2ccccc2Oc2ccc(Cl)cc21`, the melting point fell in the range of 126 to 129 °C.
Then `CN(C)C(=O)NC(=CC(=O)Nc1cc(F)c(C#N)cc1F)C(F)(F)F`, with 138 °C; and `CCCNS(=O)(=O)c1cc(C(=O)CCC(=O)O)ccc1Cl`, with 106 °C.
Then `Cn1nc(-c2ccccc2S(N)(=O)=O)oc1=O`, with 168 to 173 °C; and `Cc1ccccc1C1c2cc(NC(=O)CC(C)(C)C)c(C)c(C)c2OC1(C)C` (centres undefined), with 161 to 162 °C.
In turn, `COC(=O)COc1ccc(CC(C)=O)cc1` gave a melting point of 63 °C.
The figure for `Cc1cccc2c(=O)nc(-c3cccc(C(=O)OC(C)(C)C)n3)sc12` is 204 to 205 °C.
`CN1C(=O)[C@@H](CN2CCCCC2)C[C@H]1c1ccc(Br)cc1` gave a melting point of 55 to 58 °C.
Then `CCOC(=O)c1c(CCCCc2nccn2C)nc2cc(OC)c(OC)cc2c1-c1ccc(OC)c(OC)c1`, with 180 to 183 °C; and `Cc1cc(SC#N)c(C)c(C)c1O`, with 100 °C.
The figure for `COc1cccc2c1C(C)C(=O)N2C` (centres undefined) is 73 to 74 °C; for `Cc1ccc2ccccc2c1Cn1ccnc1` it is 98 to 98.5 °C.
